Laboratory results as given in US20160108008A1, “Substituted N-(Tetrazol-5-yl)- and N-(Triazol-5-yl)arylcarboxamide Compounds and Their Use as Herbicides” (BASF SE, priority 2013, published 2016).
Marks after values point to notes of the source that are not given here.

Columns and labels:
Format in all cases: in vivo
Amaranthus retroflexus [1] = experiment: greenhouse post-emergence treatment, AMARE; conditions: scale 0-100
Description: (§1) The culture containers used were plastic flowerpots containing loamy sand with approximately 3.0% of humus as the substrate. The seeds of the test plants were sown separately for each species.
(§2) For the post-emergence treatment, the test plants were first grown to a height of 3 to 15 cm, depending on the plant habit, and only then treated with the active ingredients which had been suspended or emulsified in water. For this purpose, the test plants were either sown directly and grown in the same containers, or they were first grown separately as seedlings and transplanted into the test containers a few days prior to treatment.
(§3) Depending on the species, the plants were kept at 10-25° C. or 20-35° C. The test period extended over 2 to 4 weeks. During this time, the plants were tended, and their response to the individual treatments was evaluated.
(§4) Evaluation was carried out using a scale from 0 to 100. 100 means no emergence of the plants, or complete destruction of at least the aerial moieties, and 0 means no damage, or normal course of growth. A good herbicidal activity is given at values of at least 70 and a very good herbicidal activity is given at values of at least 85.
(§5) The plants used in the greenhouse experiments belonged to the following species:
(§6) Following representative compounds of formula I according to Table 9 were used in post-emergence treatments in greenhouse experiments (values labeled with * result from pre-emergence experiments): […]

Chenopodium album = experiment: greenhouse post-emergence treatment, CHEAL; conditions: scale 0-100
Description: as §1, §2, §3, §4, §5, §6

Setaria viridis = experiment: greenhouse post-emergence treatment, SETVI; conditions: scale 0-100
Description: as §1, §2, §3, §4
(§7) The plants used in the greenhouse experiments belonged to the following species: […]

Echinochloa crus-galli [2] = experiment: greenhouse post-emergence treatment, ECHCG; conditions: scale 0-100
Description: as §1, §2, §3, §4, §5, §6

Echinochloa crus-galli [3] = experiment: greenhouse pre-emergence treatment, ECHCG; conditions: pre-emergence (value labeled *), scale 0-100
Description: as §1
(§8) For the pre-emergence treatment, the active ingredients, which had been suspended or emulsified in water, were applied directly after sowing by means of finely distributing nozzles. The containers were irrigated gently to promote germination and growth and subsequently covered with transparent plastic hoods until the plants had rooted. This cover caused uniform germination of the test plants, unless this has been impaired by the active ingredients.
as §3, §4, §7

Abutilon theophrasti = experiment: greenhouse post-emergence treatment, ABUTH; conditions: 1000 g/ha, scale 0-100
Description: as §1, §2, §3, §4, §7

Amaranthus retroflexus [4] = experiment: greenhouse pre-emergence treatment, AMARE; conditions: pre-emergence (value labeled *), 1000 g/ha; scale 0-100
Description: as §1, §8, §3, §4, §5, §6

Alopecurus agrestis = experiment: greenhouse post-emergence treatment, ALOMY; conditions: 250 g/ha, scale 0-100
Description: as §1, §2, §3, §4, §7

Compound	[%] damage to weed III (AMARE) (Amaranthus retroflexus [1]; 500 g/ha) [%]	[%] damage to weed VI (CHEAL) (Chenopodium album; 500 g/ha) [%]	[%] damage to weed I (ABUTH) (Abutilon theophrasti) [%]	[%] damage to weed VII (ECHCG) (Echinochloa crus-galli [2]; 1000 g/ha) [%]	[%] damage to weed VI (CHEAL) (Chenopodium album; 250 g/ha) [%]	further results
Cc1c(C(=O)Nc2nnnn2C)cc(F)cc1S(C)(=O)=O [compound 7]	100	100				[%] damage to weed XI (SETVI) (Setaria viridis; 500 g/ha): 100%
CCOc1c(Cl)cc(F)c(C(=O)Nc2ncnn2C)c1Cl [compound 17]	100	100				[%] damage to weed VII (ECHCG) (Echinochloa crus-galli [2]; 500 g/ha): 98; %; [%] damage to weed VII (ECHCG) (Echinochloa crus-galli [3]; 500 g/ha): 85* %
Cc1c(C(=O)Nc2nnnn2C)cc(F)c(S(C)(=O)=O)c1S(C)(=O)=O [compound 66]			100	100		[%] damage to weed III (AMARE) (Amaranthus retroflexus [1]; 1000 g/ha): 100; %; [%] damage to weed III (AMARE) (Amaranthus retroflexus [4]): 100* %
CSc1c(F)cc(C(=O)Nc2nnnn2C)c(C)c1SC [compound 67]			100	100		
COCCn1nnnc1NC(=O)c1c(F)cc(Cl)c(S(C)(=O)=O)c1Cl [compound 76]					100	[%] damage to weed III (AMARE) (Amaranthus retroflexus [1]; 250 g/ha): 100%; [%] damage to weed VII (ECHCG) (Echinochloa crus-galli [2]; 250 g/ha): 100; %; [%] damage to weed VII (ECHCG) (Echinochloa crus-galli [3]; 250 g/ha): 100* %
Cn1nnnc1NC(=O)c1c(F)cc(Cl)c([S+](C)[O-])c1Cl (centres unmarked) [cpd. 6]					100	[%] damage to weed II (ALOMY) (Alopecurus agrestis): 100%; [%] damage to weed XI (SETVI) (Setaria viridis; 250 g/ha): 100%
